Consider 20 compounds from ChEMBL document CHEMBL1208784, “Refinement of the pharmacophore of 3,4-dihydroquinazoline-2(1H)-thiones for their anti-melanogenesis activity” (Bioorg Med Chem Lett, 2010).

A value given as a limit tells only on which side of the number the result lay.

In experiment [1] the test system is B16. Kind of experiment: Antimelanogenic activity in mouse B16 cells assessed as inhibition of alpha-MSH-induced melanogenesis. Type of experiment: functional, cell-based.
Experiment [2] has as its system B16. Kind of experiment: Antimelanogenic activity in mouse B16 cells assessed as inhibition of alpha-MSH-induced melanogenesis at 10 uM. Type of experiment: functional.
The test system of experiment [3] is B16. Kind of experiment: Antimelanogenic activity in mouse B16 cells assessed as inhibition of alpha-MSH-induced melanogenesis at 100 uM. Type of experiment: functional.
Experiment [4] has as its target T1, Tyrosinase (Mus musculus, UniProt P11344).
T1 sequence (P11344 whole entry): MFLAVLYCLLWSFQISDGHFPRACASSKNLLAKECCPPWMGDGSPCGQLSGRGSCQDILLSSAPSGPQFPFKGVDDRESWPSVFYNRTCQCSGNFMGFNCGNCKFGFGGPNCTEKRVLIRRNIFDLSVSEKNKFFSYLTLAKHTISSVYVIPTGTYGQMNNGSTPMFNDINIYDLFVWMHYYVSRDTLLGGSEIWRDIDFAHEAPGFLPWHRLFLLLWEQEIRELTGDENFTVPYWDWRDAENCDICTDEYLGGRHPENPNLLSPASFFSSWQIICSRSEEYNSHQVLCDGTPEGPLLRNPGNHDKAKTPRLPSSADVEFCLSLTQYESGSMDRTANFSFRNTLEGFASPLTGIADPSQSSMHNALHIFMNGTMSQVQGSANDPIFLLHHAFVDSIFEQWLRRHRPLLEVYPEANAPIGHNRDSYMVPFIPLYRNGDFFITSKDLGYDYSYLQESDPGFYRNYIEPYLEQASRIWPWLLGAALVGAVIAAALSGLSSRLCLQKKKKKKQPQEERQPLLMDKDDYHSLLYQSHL
Kind of experiment: Inhibition of tyrosinase in alpha-MSH-induced mouse B16 cells. Type of experiment: cell-based.

For `Cc1ccc2c(c1)CN(CCC(C)C)C(=S)N2`, in experiment [1], the IC50 came out at 3 µM. Moreover, in experiment [2], the inhibition at 10 µM is above 100%.
Consider `CCCCCCN1Cc2cc(C)ccc2NC1=S`, for which the IC50 in experiment [1] is 1.2 µM. Besides, the inhibition at 10 µM in experiment [2] was above 100%.
On the same counts, the results for `CCCCCCCN1Cc2cc(C)ccc2NC1=S` are 1.4 µM and above 100%.
On the same counts, the results for `Cc1ccc2c(c1)CN(CC1CCCCC1)C(=S)N2` are 1.6 µM and above 100%.
The corresponding values for `S=C1Nc2ccc(Cl)cc2CN1CC1CCCCC1` are 1.2 µM and above 100%.
Regarding `S=C1NCc2ccccc2N1`, the IC50 in experiment [1] was determined as 15.8 µM. Moreover, the inhibition at 10 µM in experiment [2] worked out at 36%.
The corresponding values for `Cc1ccc2c(c1)CN(C(C)C)C(=S)N2C` are 19 µM and 10%.
The corresponding values for `Cc1ccc2c(c1)CN(CC(C)C)C(=S)N2C` are 17.8 µM and 18%.
Turning to `Cc1ccc2c(c1)CN(C(C)C)C(=O)N2`, in experiment [1], the IC50 was above 10 µM. In addition, the inhibition at 10 µM in experiment [2] was determined as 13%.
The corresponding values for `Cc1ccc2c(c1)CN(CC(C)C)C(=O)N2` are above 10 µM and 11%.
The corresponding values for `Cc1ccc2c(c1)CN(CCC(C)C)C(=O)N2` are above 10 µM and 15%.
For the compound `CCCCCCN1Cc2cc(C)ccc2NC1=O`, in experiment [1], the IC50 is above 10 µM. Further, the inhibition at 10 µM in experiment [2] was determined as 12%.
On the same counts, the results for `CCCCCCCN1Cc2cc(C)ccc2NC1=O` are above 10 µM and 19%.
On the same counts, the results for `Cc1ccc2c(c1)CN(CC1CCCCC1)C(=O)N2` are above 10 µM and 18%.
On the same counts, the results for `O=C1Nc2ccc(Cl)cc2CN1CC1CCCCC1` are above 10 µM and 10%.
As to `O=C1NCc2ccccc2N1`, in experiment [1], the IC50 is above 10 µM. Moreover, in experiment [2], the inhibition at 10 µM came out at 11%.
As to `Cc1ccc2c(c1)CN(C(C)C)C(=S)N2`, the concentration for half-maximal inhibition (IC50) in experiment [1] turned out to be 1.9 µM. Further, the inhibition at 10 µM in experiment [2] was above 100%.
With `Cc1ccc2c(c1)CN(CC(C)C)C(=S)N2`, the IC50 in experiment [1] was 1.9 µM. In addition, in experiment [2], the inhibition at 10 µM is above 100%.
Consider `NC(=O)Nc1ccccc1`, for which the inhibition at 100 µM in experiment [3] is 0%.
For the compound `NC(=S)Nc1ccccc1` [PHENYLTHIOUREA], 1.8 µM corresponded to half-maximal inhibition in experiment [4] (IC50).
